In PubChem BioAssay (NCI):
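Five concentrations, 48 hours, 96-well plates. The concentration for full growth arrest is given as TGI.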

Experiments:
Assay in all cases: DTP human tumour cell line panel, 48 h
[1] = tested on: IGROV1 ovarian
[2] = tested on: MDA-MB-231 breast
[3] = tested on: DU-145 prostate
[4] = tested on: T-47D breast
[5] = tested on: MDA-N
[6] = tested on: A549 NSCLC
[7] = tested on: MCF7 breast
[8] = tested on: SK-MEL-28 melanoma
[9] = tested on: HCT-116 colon
[10] = tested on: OVCAR-8 ovarian
[11] = tested on: 786-0 renal
[12] = tested on: UACC-257 melanoma
[13] = tested on: HS 578T breast
[14] = tested on: RXF 393 renal
[15] = tested on: HT29 colon
[16] = tested on: NCI-H460 lung
[17] = tested on: SNB-75 CNS
[18] = tested on: SF-268 CNS
[19] = tested on: HOP-92 NSCLC
[20] = tested on: HCT-15 colon
[21] = tested on: HCC-2998 colon
[22] = tested on: KM12 colon
[23] = tested on: SF-295 CNS
[24] = tested on: U251 CNS
[25] = tested on: NCI-H522 lung
[26] = tested on: A498 renal
[27] = tested on: BT-549 breast
[28] = tested on: NCI-H23 lung
[29] = tested on: CAKI-1 renal
[30] = tested on: PC-3 prostate
[31] = tested on: ACHN renal
[32] = tested on: UACC-62 melanoma
[33] = tested on: OVCAR-4 ovarian
[34] = tested on: MOLT-4 leukemia
[35] = tested on: SN12C renal
[36] = tested on: MDA-MB-435
[37] = tested on: SNB-19 CNS
[38] = tested on: K-562 leukemia
[39] = tested on: NCI/ADR-RES ovarian
[40] = tested on: LOX IMVI melanoma
[41] = tested on: HOP-62 NSCLC
[42] = tested on: RPMI-8226 leukemia
[43] = tested on: UO-31 renal
[44] = tested on: SK-MEL-2 melanoma
[45] = tested on: SK-MEL-5 melanoma
[46] = tested on: MALME-3M melanoma
[47] = tested on: COLO 205 colon
[48] = tested on: SK-OV-3 ovarian
[49] = tested on: TK-10 renal
[50] = tested on: CCRF-CEM leukemia
[51] = tested on: NCI-H226 lung
[52] = tested on: SF-539 CNS
[53] = tested on: OVCAR-5 ovarian
[54] = tested on: EKVX NSCLC
[55] = tested on: SW-620 colon
[56] = tested on: OVCAR-3 ovarian
[57] = tested on: SR leukemia
[58] = tested on: HL-60(TB) leukemia
[59] = tested on: M14 melanoma

## Cc1ccc2nc(C=Nc3ccccc3Cl)cc(C)c2c1
[1]
  TGI: 36.7 µM
[2]
  TGI: 35.6 µM
[3]
  TGI: > 100 µM
[4]
  TGI: 47.4 µM
[5]
  TGI: 23.8 µM
[6]
  TGI: > 100 µM
[7]
  TGI: 46.8 µM
[8]
  TGI: 42 µM
[9]
  TGI: 16.3 µM
[10]
  TGI: 29.9 µM
[11]
  TGI: 33.2 µM
[12]
  TGI: 30.6 µM
[13]
  TGI: 81.2 µM
[14]
  TGI: 29.6 µM
[15]
  TGI: 36.8 µM
[16]
  TGI: 38.6 µM
[17]
  TGI: 56.2 µM
[18]
  TGI: 40 µM
[19]
  TGI: 83 µM
[20]
  TGI: 38.1 µM
[21]
  TGI: > 100 µM
[22]
  TGI: 35.9 µM
[23]
  TGI: 47.2 µM
[24]
  TGI: 37.7 µM
[25]
  TGI: 47.2 µM
[26]
  TGI: > 100 µM
[27]
  TGI: 30.1 µM
[28]
  TGI: 46.4 µM
[29]
  TGI: > 100 µM
[30]
  TGI: > 100 µM
[31]
  TGI: > 100 µM
[32]
  TGI: 30.4 µM
[33]
  TGI: 92.9 µM
[34]
  TGI: 35.1 µM
[35]
  TGI: 28.6 µM
[36]
  TGI: 28.5 µM
[37]
  TGI: > 100 µM
[38]
  TGI: > 100 µM
[39]
  TGI: 40.2 µM
[40]
  TGI: 22.6 µM
[41]
  TGI: > 100 µM
[42]
  TGI: > 100 µM
[43]
  TGI: 35.5 µM
[44]
  TGI: > 100 µM
[45]
  TGI: 29.5 µM
[46]
  TGI: 61.9 µM
[47]
  TGI: > 100 µM
[48]
  TGI: > 100 µM
[49]
  TGI: 98.7 µM
[50]
  TGI: 52.8 µM
[51]
  TGI: 48.8 µM
[52]
  TGI: 33.7 µM
[53]
  TGI: > 100 µM
[54]
  TGI: > 100 µM
[55]
  TGI: 28.5 µM
[56]
  TGI: 35.4 µM
[57]
  TGI: 26.6 µM
[58]
  TGI: 18.4 µM
[59]
  TGI: 35.1 µM

## COC(O)C12OC3CO[Si](C(C)C)(C(C)C)O[Si](C(C)C)(C(C)C)OC3C1Oc1nc(=O)ccn12 (stereo unspecified)
[1]
  TGI: 25.6 µM
[2]
  TGI: 34 µM
[3]
  TGI: 30.6 µM
[4]
  TGI: 24.1 µM
[5]
  TGI: 26.7 µM
[6]
  TGI: 26.1 µM
[7]
  TGI: 24.8 µM
[8]
  TGI: > 100 µM
[9]
  TGI: 21.8 µM
[10]
  TGI: 24.6 µM
[11]
  TGI: 31.1 µM
[12]
  TGI: 24.3 µM
[13]
  TGI: 19.5 µM
[14]
  TGI: 24.6 µM
[15]
  TGI: 20.5 µM
[16]
  TGI: 23.4 µM
[17]
  TGI: 41.3 µM
[18]
  TGI: 26.4 µM
[19]
  TGI: 22 µM
[20]
  TGI: 30.9 µM
[21]
  TGI: 14.9 µM
[22]
  TGI: 19 µM
[23]
  TGI: 24.8 µM
[24]
  TGI: > 48.3 µM
[25]
  TGI: 18.3 µM
[26]
  TGI: 32.9 µM
[27]
  TGI: 29.3 µM
[28]
  TGI: 28.4 µM
[29]
  TGI: 33.7 µM
[30]
  TGI: 17 µM
[31]
  TGI: 27.5 µM
[32]
  TGI: 23.4 µM
[33]
  TGI: 28 µM
[34]
  TGI: 5.78 µM
[35]
  TGI: 27.8 µM
[36]
  TGI: 26.7 µM
[37]
  TGI: 28.9 µM
[38]
  TGI: 64.9 µM
[39]
  TGI: 50.6 µM
[40]
  TGI: 27.9 µM
[41]
  TGI: 26.9 µM
[42]
  TGI: 3.51 µM
[43]
  TGI: 29.3 µM
[44]
  TGI: 25.1 µM
[45]
  TGI: 21.1 µM
[46]
  TGI: 26.9 µM
[47]
  TGI: 27.3 µM
[48]
  TGI: 31.6 µM
[49]
  TGI: 28.7 µM
[50]
  TGI: 18.5 µM
[51]
  TGI: 33.9 µM
[52]
  TGI: 29.3 µM
[53]
  TGI: 29.1 µM
[54]
  TGI: 28.7 µM
[55]
  TGI: > 52.7 µM
[56]
  TGI: 23.5 µM
[57]
  TGI: 6.98 µM
[58]
  TGI: 13.2 µM
[59]
  TGI: 25.3 µM

## O=c1[nH]c2cc(C(F)(F)F)ccc2nc1CBr
[1]
  TGI: 24.5 µM
[2]
  TGI: 35.6 µM
[3]
  TGI: 23.1 µM
[4]
  TGI: 33.3 µM
[5]
  TGI: 26.9 µM
[6]
  TGI: 27.4 µM
[7]
  TGI: 21.7 µM
[8]
  TGI: 30 µM
[9]
  TGI: 28.7 µM
[10]
  TGI: 39.6 µM
[11]
  TGI: 19.2 µM
[12]
  TGI: 28.7 µM
[13]
  TGI: 56.6 µM
[14]
  TGI: 25.2 µM
[15]
  TGI: 38.6 µM
[16]
  TGI: 32.3 µM
[17]
  TGI: 30.7 µM
[18]
  TGI: 59.1 µM
[19]
  TGI: 11.1 µM
[20]
  TGI: 33.3 µM
[21]
  TGI: 33.2 µM
[22]
  TGI: 31.4 µM
[23]
  TGI: 28.9 µM
[24]
  TGI: 24.8 µM
[25]
  TGI: 1.52 µM
[26]
  TGI: 33 µM
[27]
  TGI: 27.5 µM
[28]
  TGI: 38.6 µM
[29]
  TGI: 17.5 µM
[30]
  TGI: 26.3 µM
[31]
  TGI: 20.2 µM
[32]
  TGI: 23.2 µM
[33]
  TGI: 32.3 µM
[34]
  TGI: > 100 µM
[35]
  TGI: 34.8 µM
[36]
  TGI: 26.2 µM
[37]
  TGI: 32.7 µM
[38]
  TGI: > 100 µM
[39]
  TGI: 50.4 µM
[40]
  TGI: 12.8 µM
[41]
  TGI: 28.7 µM
[42]
  TGI: 69.8 µM
[43]
  TGI: 18.1 µM
[44]
  TGI: 26.6 µM
[45]
  TGI: 28.5 µM
[46]
  TGI: 27.4 µM
[47]
  TGI: 35.8 µM
[48]
  TGI: 35.2 µM
[49]
  TGI: 27.9 µM
[50]
  TGI: 5.73 µM
[51]
  TGI: 26.7 µM
[52]
  TGI: 16.1 µM
[53]
  TGI: 29.3 µM
[54]
  TGI: 29.5 µM
[55]
  TGI: 37.6 µM
[56]
  TGI: 23.7 µM
[57]
  TGI: > 100 µM
[58]
  TGI: 14.3 µM
[59]
  TGI: 21.1 µM

## NC(N)=NS(=O)(=O)c1ccc(NC(=O)c2cccc3c(NNc4ccc(C(=O)O)cc4)c4ccccc4nc23)cc1
[1]
  TGI: > 100 µM
[2]
  TGI: > 100 µM
[3]
  TGI: > 100 µM
[4]
  TGI: > 100 µM
[5]
  TGI: > 100 µM
[6]
  TGI: > 100 µM
[7]
  TGI: > 100 µM
[8]
  TGI: > 100 µM
[9]
  TGI: > 100 µM
[10]
  TGI: > 100 µM
[11]
  TGI: > 100 µM
[12]
  TGI: > 100 µM
[13]
  TGI: > 100 µM
[14]
  TGI: > 100 µM
[15]
  TGI: > 100 µM
[16]
  TGI: > 100 µM
[17]
  TGI: > 100 µM
[18]
  TGI: > 100 µM
[19]
  TGI: > 100 µM
[20]
  TGI: > 100 µM
[21]
  TGI: > 100 µM
[22]
  TGI: > 100 µM
[23]
  TGI: > 100 µM
[24]
  TGI: > 100 µM
[25]
  TGI: > 100 µM
[26]
  TGI: 98.2 µM
[27]
  TGI: > 100 µM
[28]
  TGI: > 100 µM
[29]
  TGI: > 100 µM
[30]
  TGI: > 100 µM
[31]
  TGI: > 100 µM
[32]
  TGI: > 100 µM
[33]
  TGI: > 100 µM
[34]
  TGI: > 100 µM
[35]
  TGI: > 100 µM
[36]
  TGI: > 100 µM
[37]
  TGI: > 100 µM
[38]
  TGI: > 100 µM
[39]
  TGI: > 100 µM
[40]
  TGI: > 100 µM
[41]
  TGI: > 100 µM
[42]
  TGI: > 100 µM
[43]
  TGI: > 100 µM
[44]
  TGI: 95.7 µM
[45]
  TGI: > 100 µM
[46]
  TGI: > 100 µM
[47]
  TGI: > 100 µM
[48]
  TGI: > 100 µM
[49]
  TGI: > 100 µM
[50]
  TGI: 85.2 µM
[51]
  TGI: > 100 µM
[52]
  TGI: > 100 µM
[53]
  TGI: > 100 µM
[54]
  TGI: > 100 µM
[55]
  TGI: > 100 µM
[56]
  TGI: > 100 µM
[57]
  TGI: > 100 µM
[58]
  TGI: > 100 µM
[59]
  TGI: > 100 µM
